For 13 compounds, EC50 results are on record in patent US20230115274A1, “COMPOUNDS AND COMPOSITIONS FOR TREATING CONDITIONS ASSOCIATED WITH STING ACTIVITY” (IFM Due, Inc., priority 2019, published 2023).

In this assay the target is T1, hSTING (Homo sapiens, UniProt Q86WV6, G230A/H232R/R293Q/R71H).
T1 construct: host or cells: THP1-Dual KO-IFNAR2 cells
The experiment in a line: STING reporter assay (luciferase) in THP1-Dual KO-IFNAR2 cells stimulated with 2′3′cGAMP. Type of assay: cell-based. The note with it: 2′3′cGAMP 15 μM, 24 h. The procedure:
STING pathway activation by the compounds described herein was measured using THP1-Dual™ cells (KO-IFNAR2).
THP1-Dual™ KO-IFNAR2 Cells (obtained from invivogen) were maintained in RPMI, 10% FCS, 5 ml P/S, 2 mM L-glut, 10 mM Hepes, and 1 mM sodium pyruvate. Compounds were spotted in empty 384 well tissue culture plates (Greiner 781182) by Echo for a final concentration of 0.0017-100 μM. Cells were plated into the TC plates at […], 2×10E6 cells/mL. For activation with STING ligand, 2′3′cGAMP (MW 718.38, obtained from Invivogen), was prepared in Optimem media.
The following solutions were prepared for each 1×384 plate: • Solution A: 2 mL Optimem with one of the following stimuli: • […] • Solution B: 2 mL Optimem with 60 μL Lipofectamine 2000->Incubate 5 min at RT
2 mL of solution A and 2 ml Solution B was mixed and incubated for 20 min at room temperature (RT). 20 uL of transfection solution (A+B) was added on top of the plated cells, with a final 2′3′cGAMP concentration of 15 μM. The plates were then centrifuged immediately at 340 g for 1 minute, after which they were incubated at 37° C., 5% CO2, >98% humidity for 24 h. Luciferase reporter activity was then measured. EC50 values were calculated by using standard methods known in the art.
Luciferase reporter assay: 10 μL of supernatant from the assay was transferred to white 384-plate with flat bottom and squared wells. One pouch of QUANTI-Luc™ Plus was dissolved in 25 mL of water. 100 μL of QLC Stabilizer per 25 mL of QUANTI-Luc™ Plus solution was added. 50 μL of QUANTI-Luc™ Plus/QLC solution per well was then added. Luminescence was measured on a Platereader (e.g., Spectramax I3X (Molecular Devices GF3637001)).
Luciferase reporter activity was then measured. EC50 values were calculated by using standard methods known in the art.
(In a reporter assay the amount or activity of a reporter protein is the signal.)

The structures appear in SMILES notation.

For orientation: EC50 means the midpoint of the concentration-response curve.

T1 sequence (Q86WV6 whole entry R71H/G230A/H232R/R293Q): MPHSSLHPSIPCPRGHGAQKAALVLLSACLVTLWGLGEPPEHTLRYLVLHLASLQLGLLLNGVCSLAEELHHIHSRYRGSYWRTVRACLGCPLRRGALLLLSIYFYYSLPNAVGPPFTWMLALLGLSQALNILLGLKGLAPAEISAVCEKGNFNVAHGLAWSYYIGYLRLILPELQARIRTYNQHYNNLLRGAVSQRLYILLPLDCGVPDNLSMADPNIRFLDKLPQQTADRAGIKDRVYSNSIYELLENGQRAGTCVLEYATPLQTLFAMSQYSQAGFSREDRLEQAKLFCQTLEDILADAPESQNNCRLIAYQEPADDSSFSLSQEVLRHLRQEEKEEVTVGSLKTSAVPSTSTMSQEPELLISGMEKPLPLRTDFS

As to `O=C(Nc1cnn(C2CCC(F)(F)CC2)c1)Nc1c[nH]c2cccnc12` [Compound 205, 1-(1-(4,4-difluorocyclohexyl)-1H-pyrazol-4-yl)-3-(1H-pyrrolo[3,2-b]pyridin-3-yl)urea], the EC50 (numeric bounds) was > 30000 nM.

As for `CN(C(=O)OC(C)(C)C)C1CC(n2cc(NC(=O)Nc3ccc(C4CCC(F)(F)CC4)nc3)c3cc(F)cnc32)C1` (stereo not shown) [Compound 101, tert-butyl (3-(3-(3-(6-(4,4-difluorocyclohexyl)pyridin-3-yl)ureido)-5-fluoro-1H-pyrrolo[2,3-b]pyridin-1-yl)cyclobutyl)(methyl)carbamate], the half-maximal effective concentration (EC50) (class symbols) lay within 5000 to 100000 nM.

The compound `O=C(Nc1cnc(N2CCN(CC(F)(F)F)CC2)c(Cl)c1)Nc1c[nH]c2cccnc12` [Compound 227, 1-(5-chloro-6-(4-(2,2,2-trifluoroethyl)piperazin-1-yl)pyridin-3-yl)-3-(1H-pyrrolo[3,2-b]pyridin-3-yl)urea] had an EC50 (class symbols) of 200 to 1000 nM.

As to `O=C(Nc1cnc(N2CCC3(CC2)CC3)c(Cl)c1)Nc1c[nH]c2cccnc12` [Compound 221, 1-(5-chloro-6-(6-azaspiro[2.5]octan-6-yl)pyridin-3-yl)-3-(1H-pyrrolo[3,2-b]pyridin-3-yl)urea], the EC50 (class symbols) fell in the range of 200 to 1000 nM.

As to `CC(O)c1cc(NC(=O)Nc2c[nH]c3ncc(F)cc23)cnc1N1CCC(F)(F)CC1` (stereo not shown) [Compound 138, 1-(6-(4,4-difluoropiperidin-1-yl)-5-(1-hydroxyethyl)pyridin-3-yl)-3-(5-fluoro-1H-pyrrolo[2,3-b]pyridin-3-yl)urea], the EC50 (class symbols) fell in the range of 1000 to 5000 nM.

Under “class symbols”, `COC1CCN(c2ncc(NC(=O)Nc3c[nH]c4ncc(F)cc34)cc2C)CC1` [Compound 194, 1-(5-fluoro-1H-pyrrolo[2,3-b]pyridin-3-yl)-3-(6-(4-methoxypiperidin-1-yl)-5-methylpyridin-3-yl)urea] yielded an EC50 of 1000 to 5000 nM.

Take `CCc1ccc2[nH]cc(NC(=O)Nc3cnc(N4CCC(F)(F)CC4)c(C)c3)c2n1` [Compound 139, 1-(6-(4,4-difluoropiperidin-1-yl)-5-methylpyridin-3-yl)-3-(5-ethyl-1H-pyrrolo[3,2-b]pyridin-3-yl)urea]: the EC50 (class symbols) is 1000 to 5000 nM.

Turning to `COc1ccc2[nH]cc(NC(=O)Nc3cnc(N4CCC(F)(F)CC4)c(C)c3)c2n1` [Compound 173, 1-(6-(4,4-difluoropiperidin-1-yl)-5-methylpyridin-3-yl)-3-(5-methoxy-1H-pyrrolo[3,2-b]pyridin-3-yl)urea], where the note is “class symbols”, the EC50 was in the range of 200 to 1000 nM.

`O=C(Nc1cnc(N2CC(F)(F)C2)c(Cl)c1)Nc1c[nH]c2cccnc12` [Compound 242, 1-(5-chloro-6-(3,3-difluoroazetidin-1-yl)pyridin-3-yl)-3-(1H-pyrrolo[3,2-b]pyridin-3-yl)urea]: the EC50 (numeric bounds) is > 10000 nM.

Where the note is “class symbols”, `COCCOc1ccc2[nH]cc(NC(=O)Nc3cnc(N4CCC(F)(F)CC4)c(Cl)c3)c2n1` [Compound 218, 1-(5-chloro-6-(4,4-difluoropiperidin-1-yl)pyridin-3-yl)-3-(5-(2-methoxyethoxy)-1H-pyrrolo[3,2-b]pyridin-3-yl)urea] had an EC50 of 200 to 1000 nM.

Under “class symbols”, `COc1cc2c(NC(=O)Nc3ccc(C4CCC(F)(F)CC4)c(C#N)c3)c[nH]c2cn1` [Compound 154, 1-(3-cyano-4-(4,4-difluorocyclohexyl)phenyl)-3-(5-methoxy-1H-pyrrolo[2,3-c]pyridin-3-yl)urea] gave an EC50 of 200 to 1000 nM.

For the setting “class symbols”, `COc1ccc2[nH]cc(NC(=O)Nc3cnc(N4CC(F)(F)C4)c(F)c3)c2n1` [Compound 232, 1-(6-(3,3-difluoroazetidin-1-yl)-5-fluoropyridin-3-yl)-3-(5-methoxy-1H-pyrrolo[3,2-b]pyridin-3-yl)urea] gave an EC50 of 1000 to 5000 nM.

The compound `O=C(Nc1cnc(N2CCC(F)(F)CC2)c(Cl)c1)Nc1c[nH]c2ncc(F)cc12` [Compound 110, 1-(5-chloro-6-(4,4-difluoropiperidin-1-yl)pyridin-3-yl)-3-(5-fluoro-1H-pyrrolo[2,3-b]pyridin-3-yl)urea] yielded an EC50 (class symbols) of 40 to 200 nM.
